The subject of assay [1] is H3K9ac in MDA468 cells (p53 R273H). Nature of the assay: Western blot of H3K9ac in MDA468 cells with mutant p53 knockdown. The note with it: etoposide treatment. The class given is cell-based, human. The source says:
FIG. 4A depicts western blots depicting changes in histone modification (H3K4me3 and H3K9ac) in MDA468 cell line in response to control or p53 knockdown. FIG. 4B depicts the change in the abundance of H3K4me3 and H3K9ac following p53 GOF mutant knockdown, as well as the functional implication that the Rho and Ras pathways are most affected by p53 GOF mutant knockdown.
Experiments were next conducted to evaluate the functional outcomes of the p53 GOF regulation of histone modification. FIG. 4A (left) depicts a Western blot analysis of the MDA468 cell line in response to control or p53 knockdown. It is shown that H3K9Ac decreases in response to knockdown of mutant p53, but no other histone modifications appear to be affected.

The test system of assay [2] is MDAH087 cells (p53 R248W, GOF p53). Nature of the assay: Growth curve analysis of LFS MDAH087 cells. The settings on record: OICR-9429 2 μM or 4 μM, vs DMSO. The class given is cell-based, human. The procedure:
(§1) (FIG. 10A) Endogenous co-IP of Menin and MLL1 in LFS MDAH087 cells upon treatment of DMSO or different concentrations of ISC-30.
(§2) Li-Fraumeni Syndrome cell lines MDAH087 and MDAH041 were obtained from Dr. Michael A. Tainsky (Wayne State University, Detroit, Mich.) as a kind gift, and were cultured at 3% oxygen, in standard tissue culture medium.
(§3) 200,000 cells were seeded on 950 mm^2 surface area (one well of 6-well plate) on Day 0. Cell number was measured every two days with Countess Automated Cell Counter (Life Technologies) following its standard procedure, and then 200,000 cells were plated back for the next counting. For shRNA mediated knockdown experiments, cells were seeded seven days after the initial infection of shRNA-containing lentivirus, during which puromycin selection was completed and cells were already put back to normal growth medium. For small compound inhibitor treatment experiments, inhibitors were added on Day 0 as cells were seeded and refreshed every other day as cells were counted and plated back.

Assay [3] relates to MDAH041 cells (p53 null). Put plainly: Growth curve analysis of LFS MDAH041 cells. It counts as cell-based, human. The note with it: OICR-9429 2 μM or 4 μM, vs DMSO. The method, then: as §1, §2, §3
Assay [4] relates to mll1 in MCF7 cells (WT p53). Nature of the assay: mll1 mRNA (RT-qPCR) and MLL1 protein (western blot) upon Nutlin treatment in MCF7 cells. The settings on record: Nutlin vs DMSO. (In general: In qPCR the cycle at which signal appears reflects the starting amount.)
Excerpt: (FIG. 13B) RT-qPCR analysis of mRNA expression level changes upon DMSO or Nutlin treatment in MCF7 cells. (FIG. 13C) Western blot analysis of MLL1 protein levels upon DMSO or Nutlin treatment in MCF7 cells.
The target in assay [5] is T1, menin-MLL1 interaction (His-SUMO-Menin-Δ460-519, FITC-MLL peptide) (Homo sapiens, UniProt O00255, DEL460-519).
T1 construct: made in house; host or cells: Rosetta (DE3-pLysS) E. coli
T1 sequence (O00255 with tags, fused parts or gaps DEL460-519): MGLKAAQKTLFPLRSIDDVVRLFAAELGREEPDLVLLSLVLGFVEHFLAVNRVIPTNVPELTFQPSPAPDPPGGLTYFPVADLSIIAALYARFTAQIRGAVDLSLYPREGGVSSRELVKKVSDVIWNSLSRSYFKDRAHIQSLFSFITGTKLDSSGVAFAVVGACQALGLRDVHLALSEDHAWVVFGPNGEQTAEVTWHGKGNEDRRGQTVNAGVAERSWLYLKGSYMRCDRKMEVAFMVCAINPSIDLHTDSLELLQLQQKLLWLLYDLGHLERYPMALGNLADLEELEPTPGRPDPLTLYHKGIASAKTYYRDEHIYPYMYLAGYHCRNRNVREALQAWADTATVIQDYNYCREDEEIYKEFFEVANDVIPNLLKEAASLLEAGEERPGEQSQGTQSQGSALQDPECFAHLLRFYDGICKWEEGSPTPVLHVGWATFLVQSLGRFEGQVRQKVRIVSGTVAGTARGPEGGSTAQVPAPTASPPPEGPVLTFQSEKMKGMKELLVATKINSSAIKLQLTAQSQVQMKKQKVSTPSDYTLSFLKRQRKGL
Put plainly: Fluorescence polarization competition assay, FITC-MLL peptide displacement from menin. It counts as binding. The settings on record: FITC-MLL peptide 1.5 nM, His-SUMO-Menin-Δ460-519 5 nM. The procedure: (§4) FIG. 15, comprising FIG. 15A through FIG. 15G, depicts the results of example experiments. (FIG. 15A) Chemical structure of ISC-30 compound [N,N′-bis(4-aminophenyl)-N,N′-dimethylethylenediamine]. (CID: 193110, NCI: 129674, Chemical formula: C16H22N4 Molecular weight: 270.37) (FIG. 15B) His-SUMO-MeninΔ460-519 (Menin) was titrated into wells containing fluorescence polarization buffer and FITC-MLL peptide (1.5 nM) to allow fluorescence polarization monitoring and calculation of the binding affinity. (FIG. 15C) Wild-type (WT) or Mutant (Mut) competitor MLL peptides were titrated into wells containing fluorescence polarization butter, His-SUMO-MeninΔ460-519 (5 nM), and FITC-MLL peptide (1.5 nM) and the inhibition of fluorescence polarization was monitored and utilized to normalize the ISC30 inhibition. All measurements were blanked by subtracting the background signal taken from wells containing only buffer. mP=millipolarization. (FIG. 15D) Peptide displacement assay measuring ISC-30 inhibition of menin-MLL1 interaction by the decrease in fluorescence polarization (FP) signal of a FITC labeled MLL1 peptide upon ISC-30 induced dissociation from menin. […]
ISC30 was titrated into the wells of a 384-well plate containing fluorescence polarization buffer (40 mM HEPES pH 7.9, 150 mM NaCl, 0.01% Triton-X-100, 10 mM 2-mercaptoethanol), FITC-MLL peptide (1.5 nM), and His-SUMO-Menin-Δ460-519 (5 nM). […]
Background: Fluorescence polarisation rises when a labelled molecule tumbles more slowly, as on binding a larger partner.

The test system of assay [6] is Hoxa cluster genes in AT-1 cells (MLL-AF9 leukemia cell line). Nature of the assay: HoxA5 and HoxA9 mRNA levels in AT-1 cells. It counts as cell-based, mouse. The note with it: after 2 days of treatment, vs DMSO. The method, then: as §4, with “menin. (FIG. 15E) HoxA5 and HoxA9 mRNA levels after 2 days of ISC-30 or DMSO (vehicle control) treatment in AT-1 cells (mouse MLL-AF9 leukemia cell line). (FIG. 15F) Growth analysis of AT-1 cells treated with DMSO or 10 μM ISC-30.” for “menin.”

The test system of assay [7] is AT-1 cells (MLL-AF9 leukemia cell line). Nature of the assay: Growth analysis of AT-1 cells. It counts as cell-based, mouse. The settings on record: 10 μM ISC-30 vs DMSO. The procedure: as §4, with “All measurements were blanked by subtracting the background signal taken from wells containing only buffer. mP=millipolarization.” left out
200,000 cells were seeded on 950 mm^2 surface area (one well of 6-well plate) on Day 0. Cell number was measured every two days with Countess Automated Cell Counter (Life Technologies) following its standard procedure, and then 200,000 cells were plated back for the next counting. […]

Assay [8] addresses T2, menin-MLL1 interaction in MDAH087 cells (p53 GOF) (Homo sapiens, UniProt O00255).
T2 construct: endogenous in cells; host or cells: LFS MDAH087 (p53 R248W) and MDAH041 (p53 null) cells
T2 sequence (O00255 1-610): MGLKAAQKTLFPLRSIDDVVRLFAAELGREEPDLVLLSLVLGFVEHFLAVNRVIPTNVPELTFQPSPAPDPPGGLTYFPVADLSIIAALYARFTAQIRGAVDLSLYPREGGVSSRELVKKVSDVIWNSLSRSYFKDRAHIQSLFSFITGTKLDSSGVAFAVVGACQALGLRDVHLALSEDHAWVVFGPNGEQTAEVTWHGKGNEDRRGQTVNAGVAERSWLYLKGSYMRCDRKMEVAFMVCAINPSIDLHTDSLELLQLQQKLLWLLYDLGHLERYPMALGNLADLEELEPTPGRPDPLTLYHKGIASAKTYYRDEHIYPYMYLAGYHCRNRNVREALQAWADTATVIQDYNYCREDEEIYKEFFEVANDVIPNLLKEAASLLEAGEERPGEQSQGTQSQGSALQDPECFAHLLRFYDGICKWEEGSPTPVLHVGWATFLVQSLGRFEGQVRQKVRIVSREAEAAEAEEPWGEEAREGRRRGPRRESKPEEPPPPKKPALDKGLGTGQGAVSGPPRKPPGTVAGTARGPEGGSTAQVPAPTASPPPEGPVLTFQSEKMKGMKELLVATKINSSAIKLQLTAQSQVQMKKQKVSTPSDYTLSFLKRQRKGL
Nature of the assay: Endogenous co-IP of Menin and MLL1 in LFS MDAH087 cells. The settings on record: different concentrations, vs DMSO. It counts as cell-based. The procedure:
(FIG. 10A) Endogenous co-IP of Menin and MLL1 in LFS MDAH087 cells upon treatment of DMSO or different concentrations of ISC-30. (FIG. 10B) & (FIG. 10C) Growth curve analysis of LFS (FIG. 10B) MDAH087 and (FIG. 10C) MDAH041 cells treated with DMSO, […] ISC-30 Menin inhibitor. (FIG. 10D) & (FIG. 10E) Growth curve analysis of LFS (FIG. 10D) MDAH087 and (FIG. 10E) MDAH041 cells treated with DMSO, […], or 20 μM MI-2-2 Menin inhibitor. (FIG. 10F) and (FIG. 10G) Growth curve analysis of LFS (FIG. 10F) MDAH087 and (FIG. 10G) MDAH041 cells treated with DMSO, 2 μM, or 4 μM OICR-9429 WDR5 inhibitor.
Flag tagged ETS2 protein was expressed in HEK293T cells, which was then subjected to immunoprecipitation with Flag antibody conjugated Dynabeads. Then after washes, HA tagged WT or GOF p53 (generated by in vitro translation method (Thermo #88881)) was added to co-immunoprecipitate with Flag-ETS2. Endogenous co-IP experiments were performed in buffer containing: 20 mM Tris, pH 8.0, 137 mM NaCl, 1 mM MgCl2, 1 mM CaCl2, 1% NP-40, 10% glycerol, plus complete protease and phosphatase inhibitor (without EDTA), plus 12.5 U/ml benzonase (Novagen, 70746).

In assay [9] the target is T3, menin-MLL1 interaction in MDAH041 cells (p53 null) (Homo sapiens, UniProt O00255).
T3 construct: endogenous in cells; host or cells: LFS MDAH087 (p53 R248W) and MDAH041 (p53 null) cells
T3 sequence (O00255 1-610): T2 sequence (O00255 1-610)
Nature of the assay: Endogenous co-IP of Menin and MLL1 in LFS MDAH041 cells. The class given is cell-based. The settings on record: different concentrations, vs DMSO.

On to `COc1cc([C@@H]2c3cc4c(cc3[C@@H](O[C@@H]3O[C@@H]5CO[C@@H](C)O[C@H]5[C@H](O)[C@H]3O)[C@H]3COC(=O)[C@H]23)OCO4)cc(OC)c1O` [etoposide], for which, in assay [1], the “loss of H3K9ac in response to knockdown of mutant p53” value is reported as “not affected”.
For the molecule `CN1CCN(c2ccc(-c3cccc(CN4CCOCC4)c3)cc2NC(=O)c2c[nH]c(=O)cc2C(F)(F)F)CC1` [OICR-9429], in [2], the “GOF p53 cell growth” value is given as “dose-dependent inhibition”. Besides, in assay [3], the “p53 null cell growth” value is “little effect”.
Turning to `CC1(C)CN=C(N2CCN(c3ncnc4sc(CC(F)(F)F)cc34)CC2)S1` [MI-2-2], the “GOF p53 cell growth” value in assay [2] is given as “dose-dependent inhibition”.
`COc1ccc(C2=NC(c3ccc(Cl)cc3)C(c3ccc(Cl)cc3)N2C(=O)N2CCNC(=O)C2)c(OC(C)C)c1` (stereo not shown) [Nutlin]: the “mll1 expression upon stabilization and elevation of WT p53 levels” value in assay [4] was “not upregulated”.
Take `CN(CCN(C)c1ccc(N)cc1)c1ccc(N)cc1` [ISC-30, N,N′-bis(4-aminophenyl)-N,N′-dimethylethylenediamine]: the “concentration at which the compound started to inhibit menin-MLL1 interaction” value in [5] is listed as “approximately 2 μM”. In addition, the IC50 (usually the point on the concentration scale where inhibition reaches its midpoint) in assay [5] (normalized IC50, read-out: IC50, inhibition of menin-MLL1 interaction) came out at 32 µM. Also, the “expression of Hoxa cluster genes (HoxA5 and HoxA9 mRNA levels)” value in [6] is listed as “decreased expression of Hoxa cluster genes”. Further, in [7], the “growth of AT-1 cells” value is reported as “reduced”. In addition, the “menin-MLL1 interaction at endogenous levels (co-IP)” value in assay [8] and in assay [9] was “blocked menin-MLL1 interaction at endogenous levels in a dose-dependent manner” in each case. In addition, the “GOF p53 cell growth” value in [2] is reported as “dose-dependent inhibition”. Further, the “p53 null cell growth” value in assay [3] was “very little effect”.
